Tests used:
[1] = test system: SARS-CoV-2
[2] = molecular target: 3C-like main protease (3CLpro) or Nsp5 (Severe acute respiratory syndrome coronavirus 2, UniProt P0DTD1); settings: computational screening (Wu et al.); cited from earlier work
[3] = four patients, 100 mg twice daily or daily

SMILES	retesting for SARS-CoV-2 ([1]; Example 2: after 3 weeks)	clinical course (fever, symptoms) ([1]; Example 2: person, pulmonary sarcoidosis, doxycycline 100 mg orally twice a day for 10 days)	repeat nasopharyngeal swab testing for SARS-CoV-2 RNA ([1]; Example 3: on 9 May 2020)	lung infiltrates on chest X-ray ([1]; Example 4: after 14 days of doxycycline therapy)	CRP ([1]; Example 4: by day 8 (CRP 13 by day 3, before doxycycline))	supplemental oxygen requirement ([1]; Example 4: person, doxycycline 100 mg twice daily from hospital day 4, by day 8)	overall clinical outcome of the four patients [1, 3]	progression to severe disease [1, 3]	safety issues with use ([1]; four patients, standard doses for 5 to 14 days)	3CLpro binding by computational screening [2]	clinical course on azithromycin before the switch to doxycycline ([1]; Example 4 (case 4): hospital days 1-3, with ceftriaxone)
C[C@H]1c2cccc(O)c2C(=O)C2=C(O)[C@]3(O)C(=O)C(C(N)=O)=C(O)[C@@H](N(C)C)[C@@H]3[C@@H](O)[C@@H]21 [doxycycline]	negative	Fever resolved and they remained asymptomatic	negative	resolved	1.0	no longer required oxygen	All improved	None progressed to severe disease	No safety issues were noted	can bind to 3CLpro	
CC[C@H]1OC(=O)[C@H](C)[C@@H](O[C@H]2C[C@@](C)(OC)[C@@H](O)[C@H](C)O2)[C@H](C)[C@@H](O[C@@H]2O[C@H](C)C[C@H](N(C)C)[C@H]2O)[C@](C)(O)C[C@@H](C)CN(C)[C@H](C)[C@@H](O)[C@]1(C)O [azithromycin]											several days of worsening

Reference: patent US20230158049A1, “COMPOSITIONS AND METHODS FOR TREATING VIRUSES” (University of Virginia Patent Foundation, priority 2020, published 2023)
